# Data: PMC9297976 (Journal of Applied Toxicology, 2021)
# Experiments:
# [1] = biological target: T1, medaka ARβ (mArβ) (Oryzias latipes, UniProt D1MV73); assay: Medaka ARβ reporter gene assay, antagonist assay; type: cell-based, Japanese medaka (Oryzias latipes); conditions: 11‐KT spiked at 50 nM (D); MAC = 1.0 × 10^−4 M
# T1 sequence (D1MV73 1-744): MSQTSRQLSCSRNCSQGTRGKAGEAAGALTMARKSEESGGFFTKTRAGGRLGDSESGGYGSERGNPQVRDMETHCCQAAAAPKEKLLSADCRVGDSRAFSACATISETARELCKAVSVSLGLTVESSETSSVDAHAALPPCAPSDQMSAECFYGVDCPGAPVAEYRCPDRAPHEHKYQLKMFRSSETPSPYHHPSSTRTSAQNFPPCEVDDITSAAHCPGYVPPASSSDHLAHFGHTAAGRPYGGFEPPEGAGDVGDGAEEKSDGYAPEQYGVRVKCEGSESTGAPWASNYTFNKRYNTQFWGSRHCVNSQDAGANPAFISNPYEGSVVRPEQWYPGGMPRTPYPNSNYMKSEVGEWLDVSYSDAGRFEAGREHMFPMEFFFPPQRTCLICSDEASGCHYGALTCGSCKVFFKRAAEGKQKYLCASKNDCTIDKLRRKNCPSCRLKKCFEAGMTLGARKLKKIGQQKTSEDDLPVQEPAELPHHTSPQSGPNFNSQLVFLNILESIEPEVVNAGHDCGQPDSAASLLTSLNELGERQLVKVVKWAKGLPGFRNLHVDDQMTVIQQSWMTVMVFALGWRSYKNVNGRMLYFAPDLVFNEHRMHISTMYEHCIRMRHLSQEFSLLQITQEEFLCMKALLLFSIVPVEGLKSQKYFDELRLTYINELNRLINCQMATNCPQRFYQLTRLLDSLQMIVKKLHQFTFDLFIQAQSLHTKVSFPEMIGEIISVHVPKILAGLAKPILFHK
# [2] = tested on: Japanese medaka (Oryzias latipes); assay: Fish Short‐Term Reproduction Assay; type: in vivo; conditions: for GSI Female / GSI Male / HSI Female / HSI Male / Length Female / Length Male / Weight Female / Weight Male: completion of exposure
# [3] = biological target: T1, medaka ARβ (mArβ); assay: Medaka ARβ reporter gene assay, agonist assay; type: cell-based, Japanese medaka (Oryzias latipes); conditions: MAC = 1.0 × 10^−4 M
# [4] = biological target: T2, medaka Esr1 (mEsr1) (Oryzias latipes, UniProt P50241); assay: Medaka Esr1 reporter gene assay, antagonist assay; type: cell-based, Japanese medaka (Oryzias latipes)
# T2 sequence (P50241 1-620): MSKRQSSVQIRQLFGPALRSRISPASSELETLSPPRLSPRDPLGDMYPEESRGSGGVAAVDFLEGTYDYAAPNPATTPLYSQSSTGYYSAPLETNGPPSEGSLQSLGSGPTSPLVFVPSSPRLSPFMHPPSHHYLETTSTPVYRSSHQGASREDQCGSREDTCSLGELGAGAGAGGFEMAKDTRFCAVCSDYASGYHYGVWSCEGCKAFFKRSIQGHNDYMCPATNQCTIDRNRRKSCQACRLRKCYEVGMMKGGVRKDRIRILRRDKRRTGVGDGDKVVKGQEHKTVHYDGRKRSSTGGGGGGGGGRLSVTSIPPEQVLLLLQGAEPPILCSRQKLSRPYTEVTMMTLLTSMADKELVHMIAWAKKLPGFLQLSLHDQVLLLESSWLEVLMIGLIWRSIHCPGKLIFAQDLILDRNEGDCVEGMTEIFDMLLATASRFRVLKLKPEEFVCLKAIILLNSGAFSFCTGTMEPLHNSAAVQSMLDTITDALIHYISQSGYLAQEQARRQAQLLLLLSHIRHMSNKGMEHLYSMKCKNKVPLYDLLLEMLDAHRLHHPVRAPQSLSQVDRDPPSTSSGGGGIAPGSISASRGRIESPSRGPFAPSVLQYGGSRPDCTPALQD
# [5] = biological target: T2, medaka Esr1 (mEsr1); assay: cell-based; set-up: species or system Japanese medaka (Oryzias latipes); conditions: MAC = 1.0 × 10^−4 M
# [6] = measured concentration 0.349 mg/L
# [7] = measured concentration 1.02 mg/L
structure (smiles),measurement,setting,value
"CCNc1nc(Cl)nc(NC(C)(C)C#N)n1 [CZ, Cyanazine]",Antagonistic activity,[1],NE (MAC = 1.0 × 10^−4 M)^(D)
same,Fertility rate,"[2]; 0.349 mg/L measured, 21 d",80 ± 19%
same,"Hepatic VTG, female","[2]; 0.349 mg/L measured, 21 d","2,550 ± 896 ng/mg‐liver"
same,"Hepatic VTG, male","[2]; 0.349 mg/L measured, 21 d",0.5 ± 0.0 ng/mg‐liver
same,Mortality,"[2]; 0.349 mg/L measured, 21 d",4.2%
same,"Mortality, number of dead fish","[2]; 0.349 mg/L measured, 21 d",1
same,Number of fertilized eggs (per female per day),"[2]; 0.349 mg/L measured, 21 d",12 ± 5.8
same,Number of total eggs (per female per day),"[2]; 0.349 mg/L measured, 21 d",14 ± 5.1
same,SSC female (joint plates with papillary processes),"[2]; 0.349 mg/L measured, 21 d",0 ± 0
same,SSC male (joint plates with papillary processes),"[2]; 0.349 mg/L measured, 21 d",96 ± 5.9
same,Fertility rate,"[2]; 1.02 mg/L measured, 21 d",71 ± 20%
same,"Hepatic VTG, female","[2]; 1.02 mg/L measured, 21 d","2,860 ± 679 ng/mg‐liver"
same,"Hepatic VTG, male","[2]; 1.02 mg/L measured, 21 d",0.5 ± 0.0 ng/mg‐liver
same,Mortality,"[2]; 1.02 mg/L measured, 21 d",8.3%
same,"Mortality, number of dead fish","[2]; 1.02 mg/L measured, 21 d",2
same,SSC female (joint plates with papillary processes),"[2]; 1.02 mg/L measured, 21 d",0 ± 0
same,SSC male (joint plates with papillary processes),"[2]; 1.02 mg/L measured, 21 d",94 ± 23
same,Change of hepatic VTG levels in females (in words),[2]; 21 d,did not reduce
same,"Fecundity, number of total eggs (in words)",[2]; 21 d,statistically significant decrease
same,LOECREPRO,[2]; LOEC on reproduction (fecundity and/or fertility),"1,020 μg/L"
same,minimal effective concentration,"[2]; Oryzias latipes, 504 h, read-out: LOECmVTG",> 1.02 µg/mL
same,Fertility rate (in words),[2]; chemicals with significant decrease of number of total eggs,no significant effect
same,LOECREPRO (reduction in fecundity or fertility),[2]; concentrations without overt toxicity,"1,020 μg/L"
same,LOECTOX,[2]; lowest observed effect concentration on mortality,"ND (>1,020) μg/L"
same,GSI Female,[2]; [6],8.3 ± 0.9%
same,GSI Male,[2]; [6],0.67 ± 0.11%
same,HSI Female,[2]; [6],3.4 ± 0.69%
same,HSI Male,[2]; [6],1.8 ± 0.18%
same,Length Female,[2]; [6],35.8 ± 1.0 mm
same,Length Male,[2]; [6],35.3 ± 1.1 mm
same,Weight Female,[2]; [6],515 ± 28 mg
same,Weight Male,[2]; [6],483 ± 50 mg
same,GSI Female,[2]; [7],7.6 ± 0.9%
same,GSI Male,[2]; [7],0.55 ± 0.08%
same,HSI Female,[2]; [7],3.5 ± 0.33%
same,HSI Male,[2]; [7],1.7 ± 0.14%
same,Length Female,[2]; [7],35.0 ± 1.0 mm
same,Length Male,[2]; [7],34.4 ± 0.8 mm
same,Weight Female,[2]; [7],470 ± 49 mg
same,Weight Male,[2]; [7],419 ± 40 mg
same,Agonistic activity,[3],NE (MAC = 1.0 × 10^−4 M)
same,IC50,[4],610 nM
same,Antagonistic activity on mEsr1 (in words),[4]; antagonist assays,inhibited the transcriptional activity on mEsr1 by E2
same,In vitro positive: aEsr,[4]; mode of action in which IC50 or IC30 was obtained in RGA,aEsr
same,Agonistic activity,[5],NE (MAC = 1.0 × 10^−4 M)
